The assay has as its target T1, xyloglucan oligosaccharide-degrading enzyme (Geotrichum sp., UniProt Q8J0D2).
T1 construct: made in house; host or cells: Geotrichum sp. strain M128 (natural producer; enzyme purified, not recombinant)
Put plainly: Inhibition of the enzyme activity by metal ions. Conditions: concentration of 1 mM or more. It counts as biochemical, Geotrichum sp. strain M128.

As for `[Hg+2]` [mercury ion], the “inhibition of the activity of the enzyme” value is listed as “strongly inhibited”.
